Data taken from patent EP4458353A1, “ANTICARIOGENIC SYNERGETIC COMPOSITION FOR ORAL CARE” (SkyLab AG, priority 2023, dated 2024).
Read-outs that look alike come from different tables or passages of the source.

Tests used:
Format in all cases: cell-based
[1] = tested on: Streptococcus mutans; test: Minimum inhibitory concentration (MIC), serial two-fold dilution with resazurin test; details: for MIC: Streptococcus mutans
[2] = tested on: Streptococcus sobrinus; test: as above; details: for MIC: Streptococcus sobrinus
[3] = tested on: Streptococcus mutans; test: Minimum biofilm inhibitory concentration (MBIC), crystal violet staining; details: S. mutans; for MBIC in indicvdual replicates Replicate 1 / MBIC in indicvdual replicates Replicate 2 / MBIC in indicvdual replicates Replicate 3 / MBIC in indicvdual replicates Replicate 4 / MBIC in indicvdual replicates Replicate 5: 24 h incubation; for MBIC Median value: median of 5 replicates
Procedure: (§1) Group of examples No 4 - 6. Anti-biofilm activity of the substance or of the composition of substances was assessed from minimum biofilm inhibitory concentration (MBIC) and from the rate of biofilm formation on hydroxyapatite disks.
(§2) Reference strains Streptococcus mutans and S. Sobrinus were used as the bacterial models.
(§3) Example No 4. MBIC as the measure of the substance effect on the bacterial biofilm is equal to minimum concentration inhibiting the biofilm formation or disruption of already formed biofilm during 24 hour incubation.
(§4) MBIC of individual components of the composition, specifically, naringenin, guava leaf CO2 extract, and enzymes lysozyme and labiase can be determined according to the procedure: • 1) All stages of nutritive medium preparation, preparation and incubation of bacterial cultures in 96-well microtiter plates with the test composition of the substances added into nutritive medium were as described in Example 1. • 2) All controls for the culture growth, for purity of nutritive medium and for solvents were as described in Example 1. • 3) Incubate the plates at 37 °C for 24 ± 4 h without the use the orbital shaker. • 4) Stain the bacterial biofilm accumulated on bottom of the plate wells with crystal violet. For this purpose remove the planktonic culture from the plate wells after 24 h incubation and wash with two portions of phosphate-buffered saline (PBS, pH 7.4) to remove remaining planktonic culture. Then dry the plate for 12-15 hours. Add 100 µL of 0.5% crystal violet solution (Sigma-Aldrich, USA), dissolved in 96% ethanol followed by incubation for 20 minutes. After removal of crystal violet solution from the wells wash the plate with 3-4 portions of PBS. After drying add […] of 96% ethanol into the wells to elute the crystal violet, which has bound to the biofilm. • 5) Shake the plate on the orbital shaker for 2 minutes at 37 °C and then measure optical density (OD) at the wavelength of 550nm using multimodal microplate reader against the blank (the well, where the sterile medium LB was incubated and then exposed to all staining manipulations). Since the serial dilution method with 2-fold dilution steps is used for MBIC determination, the difference between the adjacent dilution is considered as non-significant, and MBIC is defined as the median value calculated for 5 independent biological replicates of the experiment. • 6) The following concentrations were tested: naringenin and guava leaf extract at concentrations 1.6, 0.8, 0.4, 0.2, 0.1, 0.05 mg/mL; lysozyme and labiase at concentrations 4.0, 2.0, 1.0, 0.5, 0.25, 0.125 mg/mL. Well-known antibacterial components were used as controls: chlorohexidine bigluconate at concentrations 64, 32, 16, 8, 4 µg/mL; zinc gluconate at concetrations 5.0, 2.5, 1.25, 0.6, 0.3, 0.15 mg/mL.

[4] = tested on: Streptococcus sobrinus; test: as above; details: S. sobrinus; for MBIC in indicvdual replicates Replicate 1 / MBIC in indicvdual replicates Replicate 2 / MBIC in indicvdual replicates Replicate 3 / MBIC in indicvdual replicates Replicate 4 / MBIC in indicvdual replicates Replicate 5: 24 h incubation; for MBIC Median value: median of 5 replicates
Procedure: as §1, §2, §3, §4

[5] = 24 h, read-out: MIC value in individual replicate Replicate 1
[6] = 24 h, read-out: MIC value in individual replicate Replicate 2
[7] = 24 h, read-out: MIC value in individual replicate Replicate 3
[8] = 24 h, read-out: MIC value in individual replicate Replicate 4
[9] = 24 h, read-out: MIC value in individual replicate Replicate 5

Compound	MBIC in indicvdual replicates Replicate 1 [3] [mg/mL]	MBIC in indicvdual replicates Replicate 2 [3] [mg/mL]	MBIC in indicvdual replicates Replicate 3 [3] [mg/mL]	MBIC in indicvdual replicates Replicate 4 [3] [mg/mL]	MBIC in indicvdual replicates Replicate 5 [3] [mg/mL]	MBIC Median value [3] [mg/mL]	MBIC in indicvdual replicates Replicate 1 [4] [mg/mL]	MBIC in indicvdual replicates Replicate 2 [4] [mg/mL]	MBIC in indicvdual replicates Replicate 3 [4] [mg/mL]	MBIC in indicvdual replicates Replicate 4 [4] [mg/mL]	MBIC in indicvdual replicates Replicate 5 [4] [mg/mL]	MBIC Median value [4] [mg/mL]	further results
zinc gluconate	1.25	1.25	0.6	0.6	0.6	0.6	5.0	5.0	2.5	2.5	2.5	2.5	MIC value in individual replicate Replicate 1 ([1]; S. mutans, 24 h at 37 °C): 600 µg/mL; MIC value in individual replicate Replicate 2 ([1]; S. mutans, 24 h at 37 °C): 600 µg/mL; MIC value in individual replicate Replicate 3 ([1]; S. mutans, 24 h at 37 °C): 300 µg/mL; MIC value in individual replicate Replicate 4 ([1]; S. mutans, 24 h at 37 °C): 300 µg/mL; MIC value in individual replicate Replicate 5 ([1]; S. mutans, 24 h at 37 °C): 300 µg/mL; MIC Median value ([1]; S. mutans, median of 5 replicates): 300 µg/mL; MIC value in individual replicate Replicate 1 ([2]; S. sobrinus, 24 h at 37 °C): 5000 µg/mL; MIC value in individual replicate Replicate 2 ([2]; S. sobrinus, 24 h at 37 °C): 5000 µg/mL; MIC value in individual replicate Replicate 3 ([2]; S. sobrinus, 24 h at 37 °C): 5000 µg/mL; MIC value in individual replicate Replicate 4 ([2]; S. sobrinus, 24 h at 37 °C): 5000 µg/mL; MIC value in individual replicate Replicate 5 ([2]; S. sobrinus, 24 h at 37 °C): 5000 µg/mL; MIC Median value ([2]; S. sobrinus, median of 5 replicates): 5000 µg/mL
N=C(NCCCCCCNC(=N)NC(=N)Nc1ccc(Cl)cc1)NC(=N)Nc1ccc(Cl)cc1 [Chlorohexidine bigluconate, chlorohexidine bigluconate]	0.008	0.008	0.008	0.008	0.004	0.008	0.004	0.004	0.008	0.004	0.004	0.004	MIC [1, 5]: 8 µg/mL; MIC [1, 6]: 8 µg/mL; MIC [1, 7]: 8 µg/mL; MIC [1, 8]: 8 µg/mL; MIC [1, 9]: 8 µg/mL; MIC ([1]; read-out: MIC Median value): 8 µg/mL; MIC [2, 5]: 4 µg/mL; MIC [2, 6]: 4 µg/mL; MIC [2, 7]: 4 µg/mL; MIC [2, 8]: 8 µg/mL; MIC [2, 9]: 4 µg/mL; MIC ([2]; read-out: MIC Median value): 4 µg/mL
